The experiment deals with primary neuronal cultures from embryonic rat brains. As to the kind of experiment: Rat oscillation assay (FLIPR, neuronal calcium oscillations). Format: cell-based. As for the experimental part:
A) Rat Oscillation Assay:
This assay is a functional phenotypic assay designed to mimic epileptic seizures using primary neuronal cultures from embryonic rat brains, which form a functional neuronal network that generate synchronized intracellular calcium concentration oscillations when cultured at high density in 384-well plate. The epileptic phenotype is induced by incubating the neurons in magnesium-free assay buffer, that results in increased probability of NMDA receptor activation, leading to an increased frequency and amplitude of intracellular calcium oscillations. Once neurons are incubated with the calcium indicator dye Fluo-8 AM (Tebu-bio), neuronal calcium oscillations can be monitored in real time using FLIPR® Tetra (fluorometric plate reader, Molecular Devices). With these recordings, the effect of anti-epileptic drugs can be quantified. The anti-epileptic effect of compounds, which activate directly or indirectly the Kv7 channels can be modulated by the Kv7 channel blocker XE-991. The assay was performed as described previously (Pacico N, Mingorance-Le Meur A. New In Vitro Phenotypic Assay for Epilepsy: Fluorescent Measurement of Synchronized Neuronal Calcium Oscillations. PLoS ONE 9(1) 2014) with modifications described hereafter.
Animal care followed standard procedures in accordance with swiss institutional guidelines. Dissociated neuronal cultures were obtained from cerebral cortices of embryonic Wistar rats at embryonic stage E18 (Charles River). The uterine horns were removed by caesarian surgery from deeply anesthetized rats (Isofurane) and sacrificed by decapitation. The embryos were decapitated by closing forceps. The brains were isolated and dissected one by one in ice-cold PBS (Life Technologies) under optical control using a binocular. Meninges, olfactory bulbs, and basal ganglia were removed. Cortical hemispheres (still including the hippocampus) were cut in small pieces with tweezers and placed on ice in pre-chilled Hibernate-E medium (Life technology). The hemispheres were then incubated in 10 mL of Hibernate-E containing 15 U/mL papain (Worthington) for 25 min at 30° C. with gentle mixing every 10 min. Genomic DNA was then digested by prolonging the incubation during 10 min at 37° C. in presence of 4 U/mL rDNase I (Ambion). The obtained suspension was then centrifuged at 800 g for 5 min and the cell pellet was resuspended in 2 mL Hibernate-E and gently dissociated by pipetting up and down 10 times with a plastic Pasteur pipette resulting in a homogenous cell suspension. This suspension was immediately filtered through a 70 µm cell strainer (MACS® SmartStrainer, Miltenyi), collected in 10 mL Hibernate-E and centrifuged at 800 g for 5 min. The cell pellet was resuspended in Neurobasal medium, supplemented with 2% B-27, 0.5 mM Glutamax-I, 100 U/mL penicillin, 100 µg/mL streptomycin (Life Technologies) and diluted at the final concentration of 300′000 cells/mL. One day before plating the cells, 384-well plates were coated with 25 μL/well of 0.1% poly-L-lysine solution (Sigma), incubated overnight at 37° C., washed two times with sterile distilled water and allowed to dry at room temperature for >2 h. The neurons were seeded at a density of 15′000 cells/well in 50 μL/well in a 384-well black, clear-bottomed plates (Corning) and subsequently maintained in an incubator at 37° C., 5% CO2 and 95% humidity for 8 to 10 days. After 3 and 7 days, 40% of media was renewed under sterile conditions.
Protocol Rat Oscillation Assay
Neurons seeded in the assay plates were washed with Hank's balanced salt solution (HBSS) devoid of Ca^2+ and Mg^2+, supplemented with 20 mM HEPES (Life Technologies) and 2 mM CaCl2 (Sigma), pH 7.4 (hereafter called Assay buffer) using a Biotek EL406 plate washer. Neurons were loaded with 1 μM Fluo-8 AM in Assay buffer for 15 min at 37° C., 5% CO2. […]

The mark [1] stands for this setting: Rattus norvegicus, 20 min, AUC of fluorescence measured 20 min after compound addition, read-out: FLIPR: IC50 [nM] 20 min.
The mark [2] stands for this setting: Rattus norvegicus, Acute phase, ratio of AUC fluorescence before and after compound addition, read-out: FLIPR: IC50 [nM] acute.

Where two headings read alike, the source gives them in different places.

As a reminder, the IC50 is the concentration needed to halve the response being measured. Consider `O=C(NCc1cccc(C(F)F)c1)NC1CC2(CC2)C1` [Example 158, 1-(3-Difluoromethyl-benzyl)-3-spiro[2.3]hex-5-yl-urea], for which the half-maximal inhibitory concentration (IC50) reads like this: under setting [1], 414 nM; under setting [2], 390 nM.

For `Cc1ccc(CNC(=O)NC2CC3(CCC3)C2)nc1OCC(F)(F)F` [Example 108, 1-[5-Methyl-6-(2,2,2-trifluoro-ethoxy)-pyridin-2-ylmethyl]-3-spiro[3.3]hept-2-yl-urea], the IC50 came to 279 nM under setting [1] and 205 nM under setting [2].

For the molecule `O=C(NCc1cccc(C(F)(F)F)c1F)NC1CC2(CCC2)C1` [Example 12, 1-(2-Fluoro-3-trifluoromethyl-benzyl)-3-spiro[3.3]hept-2-yl-urea], the concentration for half-maximal inhibition (IC50) under setting [1] is 55 nM and the half-maximal inhibitory concentration (IC50) under setting [2] worked out at 36 nM.

As for `CC(C)(NC(=O)NC1CC2(CCC2)C1)c1ccnc(OC(F)F)c1` [Example 52, 1-[1-(2-Difluoromethoxy-pyridin-4-yl)-1-methyl-ethyl]-3-spiro[3.3]hept-2-yl-urea], the IC50 amounted to 143 nM under setting [1] and 72 nM under setting [2].

With `CC(NC(=O)NC1CC2(CCC2)C1)c1cc(C(F)(F)F)ccc1Br` (racemic) [Example 19, (±)-1-[1-(2-Bromo-5-trifluoromethyl-phenyl)-ethyl]-3-spiro[3.3]hept-2-yl-urea], the IC50 came to 274 nM under setting [1] and 337 nM under setting [2].

`CC(Oc1cccc(C2(NC(=O)NC3CC4(CCC4)C3)CC2)c1)C(F)(F)F` (single isomer, unassigned) [Example 169, 1-Spiro[3.3]hept-2-yl-3-{1-[3-(2,2,2-trifluoro-1-methyl-ethoxy)-phenyl]-cyclopropyl}-urea]: the IC50 amounted to 20 nM (AUC of fluorescence measured 20 min after compound addition, read-out: FLIPR: IC50 [nM] 20 min) and 42 nM under setting [2].

With `O=C(NCc1cccc(OC(F)(F)F)c1)NC1CC2(CCC2)C1` [Example 41, 1-Spiro[3.3]hept-2-yl-3-(3-trifluoromethoxy-benzyl)-urea], the IC50 amounted to 25 nM under setting [1] and 44 nM under setting [2].

In the case of `CN(C)CC(NC(=O)NC1CC2(CCC2)C1)c1cccc(OCC(F)(F)F)n1` (racemic) [Example 48, (±)-1-{2-Dimethylamino-1-[6-(2,2,2-trifluoro-ethoxy)-pyridin-2-yl]-ethyl}-3-spiro[3.3]hept-2-yl-urea], the IC50 under setting [1] came to 138 nM and the IC50 under setting [2] stood at 510 nM.

For the molecule `CC(NC(=O)NC1CC2(CCC2)C1)c1ccnc(OC(F)(F)F)c1` (racemic) [Example 97, (±)-1-Spiro[3.3]hept-2-yl-3-[1-(2-trifluoromethoxy-pyridin-4-yl)-ethyl]-urea], the 50% inhibitory concentration (IC50) by setting is: under setting [1], 170 nM; under setting [2], 53 nM.

With `O=C(NC1CC2(CCC2)C1)NC(c1cccc(C(F)(F)F)c1)c1nc[nH]n1` (stereo not shown) [Example 56, 1-Spiro[3.3]hept-2-yl-3-[(1H-[1,2,4]triazol-3-yl)-(3-trifluoromethyl-phenyl)-methyl]-urea], the IC50 amounted to 9.7 nM under setting [1] and 27 nM under setting [2].

As to `O=C(NCc1cc(C(F)(F)F)ccc1O)NC1CC2(CCC2)C1` [Example 38, 1-(2-Hydroxy-5-trifluoromethyl-benzyl)-3-spiro[3.3]hept-2-yl-urea], the IC50 is, setting by setting: under setting [1], 330 nM; under setting [2], 627 nM.

`O=C(NCc1cccc(S(=O)(=O)C(F)(F)F)c1)NC1CC2(CCC2)C1` [Example 42, 1-Spiro[3.3]hept-2-yl-3-(3-trifluoromethanesulfonyl-benzyl)-urea]: the IC50 reads like this: under setting [1], 22 nM; under setting [2], 27 nM.

In the case of `O=C(NC1CC2(CCC2)C1)NC(CCO)c1cccc(OCC(F)(F)F)c1` (racemic) [Example 88, (±)-1-{3-Hydroxy-1-[3-(2,2,2-trifluoro-ethoxy)-phenyl]-propyl}-3-spiro[3.3]hept-2-yl-urea], the half-inhibitory concentration (IC50) by setting is: under setting [1], 28 nM; under setting [2], 45 nM.

`CC(NC(=O)NC1CC2(CCC2)C1)c1cccc(OC(C)C(F)(F)F)c1` (stereo not shown) [Example 102, 1-(Spiro[3.3]heptan-2-yl)-3-(1-(3-((1,1,1-trifluoropropan-2-yl)oxy)phenyl)ethyl)urea]: the half-maximal inhibitory concentration (IC50) under setting [1] amounted to 0.5 nM and the IC50 under setting [2] is 2.8 nM.

`O=C(NC1CC2(CCC2)C1)N[C@H](CO)c1cccc(C(F)(F)F)c1` (single isomer, unassigned) [Example 185]: the IC50 reads like this: under setting [1], 753 nM; under setting [2], 936 nM.

For `COC[C@H](NC(=O)NC1CC2(CCC2)C1)c1ccnc(OC(F)F)c1` (single isomer, unassigned) [Example 187], the half-maximal inhibitory concentration (IC50) amounted to 3.9 nM under setting [1] and 2.7 nM under setting [2].

Consider `CN(C)CC(Oc1cccc(CNC(=O)NC2CC3(CCC3)C2)n1)C(F)(F)F` (racemic) [Example 105, (±)-1-[6-(1-Dimethylaminomethyl-2,2,2-trifluoro-ethoxy)-pyridin-2-ylmethyl]-3-spiro[3.3]hept-2-yl-urea], for which the IC50 is, setting by setting: under setting [1], 261 nM; under setting [2], 278 nM.

Take `O=C(NC1CC2(CCC2)C1)NC(c1cccc(C(F)(F)F)c1)C(F)F` (stereo not shown) [Example 57, 1-[2,2-Difluoro-1-(3-trifluoromethyl-phenyl)-ethyl]-3-spiro[3.3]hept-2-yl-urea]: the half-maximal inhibitory concentration (IC50) is, setting by setting: under setting [1], 2.3 nM; under setting [2], 2.9 nM.

`O=C(NCc1cccc(C(F)(F)F)c1Cl)NC1CC2(CC2)C1` [Example 150, 1-(2-Chloro-3-trifluoromethyl-benzyl)-3-spiro[2.3]hex-5-yl-urea]: the IC50 is 1160 nM under setting [1] and 1080 nM under setting [2].

Take `COc1c(C(C)NC(=O)NC2CC3(CCC3)C2)cccc1C(F)(F)F` (racemic) [Example 21, (±)-1-[1-(2-Methoxy-3-trifluoromethyl-phenyl)-ethyl]-3-spiro[3.3]hept-2-yl-urea]: the 50% inhibitory concentration (IC50) turned out to be 72 nM under setting [1] and 112 nM under setting [2].

Take `O=C(NCc1cccc2c1OC(F)(F)O2)NC1CC2(CCC2)C1` [Example 46, 1-(2,2-Difluoro-benzo[1,3]dioxol-4-ylmethyl)-3-spiro[3.3]hept-2-yl-urea]: the IC50 by setting is: under setting [1], 285 nM; under setting [2], 234 nM.

On to `COc1ccc(C(F)(F)F)cc1C(C)NC(=O)NC1CC2(CC2)C1` (racemic) [Example 137, (±)-1-[1-(2-Methoxy-5-trifluoromethyl-phenyl)-ethyl]-3-spiro[2.3]hex-5-yl-urea], for which the IC50 reads like this: under setting [1], 1020 nM; under setting [2], 1240 nM.

Take `COCC1c2cccc(OCC(F)(F)F)c2CCN1C(=O)NC1CC2(CCC2)C1` (racemic) [Example 54, (±)-1-Methoxymethyl-5-(2,2,2-trifluoro-ethoxy)-3,4-dihydro-1H-isoquinoline-2-carboxylic acid spiro[3.3]hept-2-ylamide]: the IC50 by setting is: under setting [1], 244 nM; under setting [2], 207 nM.

Regarding `CC(NC(=O)NC1CC2(CCC2)C1)c1ccnc(OC(C)C(F)(F)F)c1` (stereo not shown) [Example 101, 1-(Spiro[3.3]heptan-2-yl)-3-(1-(2-((1,1,1-trifluoropropan-2-yl)oxy)pyridin-4-yl)ethyl)urea], the IC50 by setting is: under setting [1], 1.6 nM; under setting [2], 2.4 nM.

`O=C(NCc1cccc(OCC(F)(F)F)c1)NC1CC2(CC2)C1` [Example 157, 1-Spiro[2.3]hex-5-yl-3-[3-(2,2,2-trifluoro-ethoxy)-benzyl]-urea]: the half-maximal inhibitory concentration (IC50) is, setting by setting: under setting [1], 156 nM; under setting [2], 74 nM.

As for `CS(=O)(=O)CC(NC(=O)NC1CC2(CCC2)C1)c1cccc(OC(F)(F)F)c1` (racemic) [Example 64, (±)-1-[2-Methanesulfonyl-1-(3-trifluoromethoxy-phenyl)-ethyl]-3-spiro[3.3]hept-2-yl-urea], the concentration for half-maximal inhibition (IC50) under setting [1] was 47 nM and the IC50 under setting [2] was found to be 44 nM.

The record behind these values is patent US20230136562A1, “SPIROUREA DERIVATIVES” (Idorsia Pharmaceuticals Ltd, priority 2020, published 2023).
